According to US7129250B2, “Neuroprotective and anti-proliferative compounds” (Aegera Therapeutics Inc., priority 2000, dated 2006):

Columns and labels:
[1] = tested on: CGNs; experiment: Cisplatin Killing of CGNs; assay type: cell-based, CD1 mice; conditions: for IC50: assayed 48 hours after final drug treatment
Procedure: Cisplatin has been used extensively in the treatment of various cancers. One dosblimiting side effect of this chemotherapeutic agent is related to hearing loss as a result of its toxicity to auditory neurons and loss of feeling in the extremities. Cisplatin induces apoptosis to both cultured CGN and cortical neurons.
CGNs were harvested from day 8/9 post-natal CD1 mice, plated on Poly-D-Lycine coated plates and incubated for 6 days at 37° C. under 5% CO2. The cells were treated with media containing drug and cisplatin […].

[2] = tested on: CGNs; experiment: High/Low Potassium (HK/LK) assay in CGNs; assay type: cell-based; conditions: HK/LK switch, drug 24 h pre-treatment, assayed 16 h after media change, concentration at which cell death was inhibited by 50%
Procedure: Cultured CGNs which are maintained in a medium containing 26 mM potassium (high K^+ or HK) undergo cell death when the medium is changed to one containing 5 mM potassium (low K^+ or LK). HK maintains the cells in a highly polarized state, duplicating that of fully innervated neurons. The switch to LK (5 mM is more representative of physiological conditions) results in depolarization of the cells, mimicking the loss of neuronal conductivity. […] As these killer genes are turned on by various types of neuronal insult as observed in AD, PD, and stroke, HK/LK is a general in vitro model for neuronal degradation, blanketing a wide range of neurodegenerative diseases. Compounds that protect against HK/LK in CGNs would therefore be efficacious in treatment and/or prevention of various neurodegenerative disease states.
CGNs were harvested from day 8/9 post-natal CD1 mice, plated on Poly-D-Lycine coated plates and incubated for 6 days at 37° C., with […] potassium, under 5% CO2. Pretreated cells were treated with drug 24 hours prior to changing the media to one containing […] potassium and drug. Cells were assayed 16 hours after the final media change using cell TITER96 (Promega).

[3] = tested on: HIAP1 mRNA in LAN5 cells; experiment: LAN5 HAIP1 Down Regulators (RNA levels); assay type: cell-based; conditions: HIAP1 RNA level vs control = 1.0; 24 hours drug
Procedure: LAN5 cells were grown in growth media. Cells were plated at cells 50,000 per well in 96 cells per 96 wells. Five days latter drug was added and the cells were liced 24 hours latter using RLT buffer.

[4] = tested on: CGNs; experiment: Ceramide Killing of CGNs; assay type: cell-based, CD1 mice; conditions: ceramide 100 uM
From the text: Ceramide is a native […] found in most mammalian and human cells. The upregulation of endogenous ceramide has been linked to caspase 1 (ICE) induced apoptosis (Suzuki, A. et al. Exp. Cel. Res., 1997, 233, 41). In a similar fashion, the addition of ceramide to cultured CGNs results in caspase induced apoptosis, and is therefore considered an effective in vitro model for the various neurodegenerative diseases described above, which are characterized by caspase induced apoptosis, as observed in stroke models. Addition of selected compounds of the formula I through III, 24 hours prior to the addition of ceramide, to cultured CGNs provided protection against apoptosis, with 10 to 20% of the cells being saved at 1–10 μM drug concentrations (see Example 114).
CGNs were harvested from day 8/9 post-natal CD1 mice, plated on Poly-D-Lycine coated plates and incubated for 6 days at 37° C. under 5% CO2. Cells were pretreated with drug 24 hours prior to ceramide (100 uM) and drug addition.

[5] = tested on: SHSY-5Y cells; experiment: Etoposide Killing of SHSY-5Y; assay type: cell-based; conditions: etoposide 32 uM
Procedure: SHSY-5Y cells were grown in growth media. Cells are placed at 50,000 cells per 96 well. Four days latter the cells were treated with drug for 48 hours prior to etoposide (32 uM) treatment. On day 6 media was changed to that containing etoposide and drug for 4 hours, at which point the media was changed to media containing drug only. Cells are allowed to survive overnight and then assessed for viability with metabolic activity measured (WST-1-Beohringer Mannheime), as shown in TABLE 13.

[6] = tested on: Jurkat cells; experiment: Killing of cultured Jurkats with and without anti-Fas; assay type: cell-based, Human; conditions: for Survival % With Anti-Fas: with anti-Fas (5 ng/mL)
Procedure: Jurkats are a T-cell derived lymphoma cell line which expresses both FAS receptor and Fas-L. These cells, however, are only mildly sensitive to Fas-L/anti-Fas induced apoptosis. Select compounds were tested for their ability to kill Jurkats. Additionally, we investigated the ability of select compounds to sensitize the Jurkats to anti-Fas mediated apoptosis.
Human lymphoma jurkat cells were cultured in suspension in 24 well plates. Jurkat cell were treated with test compounds either alone or in the presence of suboptimal doses of anti-Fas antibody. After 18 hours of treatment cell death was assessed by Facs. Cells were incubated with propidium iodide and the percentage of cells that incorporated the stain was counted by Facs.

## COc1ccc2c(ccn2C2=C(c3c[nH]c4ccccc34)C(=O)NC2=O)c1 [Compound 3, 3-(5-Methoxyindol-1-yl)-4-(1H-indol-3-yl)-1H-pyrrole-2,5-dione]
[1]; Mus musculus
  IC50: 10 µM

## COc1ccc2c(c1)CC1c3[nH]c4ccccc4c3C3=C(C(=O)NC3=O)N21 (stereo not drawn) [Compound 34]
[1]
  IC50: 10 µM
[2]
  IC50: 10 µM

## COc1ccc2c(c1)cc1c3[nH]c4ccccc4c3c3c(n21)C(=O)NC3=O [Compound 48]
[1]
  IC50: 10 µM
[2]
  IC50: 3 µM

## O=C1C=C(c2c[nH]c3ccc(Br)cc23)C(=O)N1 [Compound 56, 3-(1H-5-bromoindol-3-yl)-1H-pyrrole-2,5-dione]
[3]
  Fold Induction: 0.31

## O=C1C=C(c2cn(C(=O)c3ccccc3)c3ccc(Br)cc23)C(=O)N1 [Compound 59, 3-(N-benzoyl-5-bromoindol-3-yl)-1H-pyrrole-2,5-dione]
[3]
  Fold Induction: 0.40

## Cc1ccc(S(=O)(=O)n2cc(C3=CC(=O)NC3=O)c3cc(Br)ccc32)cc1 [Compound 60, 3-(N-(p-toluenesulfoiiyl)-5-bromoindol-3-yl)-1H-pyrrole-2,5-dione]
[3]
  Fold Induction: 0.13
[2]
  IC50: 10 µM

## O=C1C=C(c2cn(S(=O)(=O)c3cccc4ccccc34)c3ccc(Br)cc23)C(=O)N1 [Compound 61, 3-(N-(1-naphthylenesulfonyl)-5-bromoindol-3-yl)-1H-pyrrole-2,5-dione]
[3]
  Fold Induction: 0.16
[4]; drug 100 nM
  % CGN Survival: 0%
[4]; drug 1 μM
  % CGN Survival: 5.1%

## O=C1C=C(c2cn(S(=O)(=O)c3ccc4ccccc4c3)c3ccc(Br)cc23)C(=O)N1 [Compound 62, 3-(N-(2-naphthylenesulfonyl)-5-bromoindol-3-yl)-1H-pyrrole-2,5-dione]
[3]
  Fold Induction: 0.18

## CN(C)c1cccc2c(S(=O)(=O)n3cc(C4=CC(=O)NC4=O)c4cc(Br)ccc43)cccc12 [Compound 63, 3-(N-dansyl-5-bromoindol-3-yl)-1H-pyrrole-2,5-dione]
[3]
  Fold Induction: 0.22

## CC(C)(C)OC(=O)NCC(=O)n1cc(C2=CC(=O)NC2=O)c2cc(OCc3ccccc3)ccc21 [Compound 69, 3-(N-(N-Boc-2-aminoacetyl)-5-benzyloxyindol-3-yl)-1H-pyrrole-2,5-dione]
[5]; drug 1 μM
  % SHSY-5Y cell survival: 5.6%

## Cc1ccc(S(=O)(=O)n2cc(C3=CC(=O)NC3=O)c3cc(OCc4ccccc4)ccc32)cc1 [Compound 70, 3-(N-tosyl-5-benzyloxyindol-3-yl)-1H-pyrrole-2,5-dione]
[3]
  Fold Induction: 0.21
[5]; drug 10 μM
  % SHSY-5Y cell survival: 7.6%

## O=C1C=C(c2cn(S(=O)(=O)c3ccc([N+](=O)[O-])cc3)c3ccc(OCc4ccccc4)cc23)C(=O)N1 [Compound 71, 3-(N-(4-nitrobenzenesulfonyl)-5-benzyloxyindol-3-yl)-1H-pyrrole-2,5-dione]
[5]; drug 10 μM
  % SHSY-5Y cell survival: 26.4%

## O=C1C=C(c2cn(Cc3ccccc3)c3ccc(OCc4ccccc4)cc23)C(=O)N1 [Compound 73, 3-(N-benzyl-5-benzyloxyindol-3-yl)-1H-pyrrole-2,5-dione]
[5]; drug 10 μM
  % SHSY-5Y cell survival: toxic

## O=C1C=C(c2cn(Cc3ccc(F)cc3)c3ccc(OCc4ccccc4)cc23)C(=O)N1 [Compound 77, 3-(N-(4-fluorobenzyl)-5-benzyloxyindol-3-yl)-1H-pyrrole-2,5-dione]
[2]; Mus musculus
  IC50: 10 µM

## O=C1C=C(c2cn(S(=O)(=O)c3ccccc3[N+](=O)[O-])c3ccccc23)C(=O)N1 [Compound 95, 3-(N-(2-nitrobenzenesulfonyl)indol-3-yl)-1H-pyrrole-2,5-dione]
[2]; Mus musculus
  IC50: 10 µM

## O=C1C=C(c2cn(S(=O)(=O)c3ccc([N+](=O)[O-])cc3)c3ccccc23)C(=O)N1 [Compound 96, 3-(N-(4-nitrobenzenesulfonyl)indol-3-yl)-1H-pyrrole-2,5-dione]
[2]; Mus musculus
  IC50: 10 µM

## O=C1C=C(c2c[nH]c3ccc(Cl)cc23)C(=O)N1 [Compound 99, 3-(1H-5-chloroindol-3-yl)-1H-pyrrole-2,5-dione]
[5]; drug 10 μM
  % SHSY-5Y cell survival: 4.7%

## O=C1NC(=O)C(n2ccc3ccccc32)=C1c1cn(CCCO)c2ccccc12 [Compound 121]
[5]; drug 1 μM
  % SHSY-5Y cell survival: 5.5%

## N=C(N)SCCCn1c2ccccc2c2c3c(n4c5ccccc5cc4c21)C(=O)NC3=O [Compound 145]
[6]; compound dose 3 (μM)
  Survival % With Anti-Fas: 34.9%
  Survival % Without Anti-Fas: 92.44%
[6]; compound dose 10 (μM)
  Survival % Without Anti-Fas: 11%

## Cc1cn(C2=C(c3cn(CCCSC(=N)N)c4ccccc34)C(=O)NC2=O)c2ccccc12 [Compound 146]
[6]; compound dose 3 (μM)
  Survival % With Anti-Fas: 19.7%
  Survival % Without Anti-Fas: >90%
[6]; compound dose 10 (μM)
  Survival % Without Anti-Fas: 0%

## N=C(N)SCCCn1cc(C2=C(n3ccc4cc(OCc5ccccc5)ccc43)C(=O)NC2=O)c2ccccc21 [Compound 147]
[6]; compound dose 3 (μM)
  Survival % With Anti-Fas: 19.7%
  Survival % Without Anti-Fas: >90%
[6]; compound dose 10 (μM)
  Survival % Without Anti-Fas: 0%

## N=C(N)SCCCn1cc(C2=C(n3ccc4ccccc43)C(=O)NC2=O)c2cc(OCc3ccccc3)ccc21 [Compound 148]
[6]; compound dose 3 (μM)
  Survival % Without Anti-Fas: >90%
[6]; compound dose 10 (μM)
  Survival % With Anti-Fas: 19.7%
  Survival % Without Anti-Fas: 0%

## Cc1cn(C2=C(c3cn(CCCSC(=N)N)c4ccc(OCc5ccccc5)cc34)C(=O)NC2=O)c2ccccc12 [Compound 149]
[6]; compound dose 3 (μM)
  Survival % With Anti-Fas: 2.00%
  Survival % Without Anti-Fas: >90%
[6]; compound dose 10 (μM)
  Survival % Without Anti-Fas: 0%

## Cc1cc2ccccc2n1C1=C(c2cn(CCCSC(=N)N)c3ccc(OCc4ccccc4)cc23)C(=O)NC1=O [Compound 150]
[6]; compound dose 3 (μM)
  Survival % With Anti-Fas: 4.49%
  Survival % Without Anti-Fas: >90%
[6]; compound dose 10 (μM)
  Survival % Without Anti-Fas: 0%

## N=C(N)SCCCn1cc(C2=C(N3CCc4ccccc43)C(=O)NC2=O)c2ccccc21 [Compound 159]
[6]; compound dose 3 (μM)
  Survival % With Anti-Fas: 9.48%
  Survival % Without Anti-Fas: >90%
[6]; compound dose 10 (μM)
  Survival % Without Anti-Fas: 17.38%

## Cn1cc(C2=C(n3cc(CCCSC(=N)N)c4ccccc43)C(=O)NC2=O)c2ccccc21 [Compound 167]
[6]; compound dose 0.3 (μM)
  Survival % With Anti-Fas: 43.3%
  Survival % Without Anti-Fas: 97.7%
[6]; compound dose 1 (μM)
  Survival % With Anti-Fas: 16.7%
  Survival % Without Anti-Fas: 88.3%
[6]; compound dose 3 (μM)
  Survival % With Anti-Fas: 4.9%
  Survival % Without Anti-Fas: 50.3%
[6]; compound dose 10 (μM)
  Survival % With Anti-Fas: 0%
  Survival % Without Anti-Fas: 0%
[6]; compound dose 30 (μM)
  Survival % With Anti-Fas: 0%
  Survival % Without Anti-Fas: 0%

## Cn1cc(C2=C(n3cc(CCCSC(=N)N)c4ccccc43)C(=O)NC2=O)c2cc(OCc3ccccc3)ccc21 [Compound 168]
[6]; compound dose 0.3 (μM)
  Survival % With Anti-Fas: 49.0%
  Survival % Without Anti-Fas: 90.7%
[6]; compound dose 1 (μM)
  Survival % With Anti-Fas: 48.6%
  Survival % Without Anti-Fas: 89.3%
[6]; compound dose 3 (μM)
  Survival % With Anti-Fas: 1%
  Survival % Without Anti-Fas: 46.1%
[6]; compound dose 10 (μM)
  Survival % With Anti-Fas: 0%
  Survival % Without Anti-Fas: 1.2%
[6]; compound dose 30 (μM)
  Survival % With Anti-Fas: 0%
  Survival % Without Anti-Fas: 0%

## COc1ccc2[nH]cc(CCNC(C)=O)c2c1 [melatonin, Melatonin, reference compound]
[1]; high doses
  protection of CGNs: protect CGNs
